The text below walks through data of ChEMBL document CHEMBL4177765, “Structure-Based Design of Inhibitors Targeting PrfA, the Master Virulence Regulator of Listeria monocytogenes” (J Med Chem, 2018).

Data set [1] has as its target T1, Listeriolysin regulatory protein (Listeria monocytogenes serovar 1/2a (strain ATCC BAA-679 / EGD-e)) (UniProt P22262).
T1 sequence (whole entry): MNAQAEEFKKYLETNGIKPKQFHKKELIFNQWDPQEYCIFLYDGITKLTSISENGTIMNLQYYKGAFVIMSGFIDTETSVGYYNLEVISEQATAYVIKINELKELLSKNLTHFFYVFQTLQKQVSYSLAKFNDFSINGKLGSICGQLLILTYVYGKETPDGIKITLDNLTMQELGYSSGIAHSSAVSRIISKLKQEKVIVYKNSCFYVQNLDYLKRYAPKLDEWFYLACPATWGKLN
Put plainly: Inhibition of PrfA in Listeria monocytogenes EGD-e assessed as downregulation of ActA expression at 10 uM by Western blot method.

Data set [2] deals with T1, Listeriolysin regulatory protein (Listeria monocytogenes serovar 1/2a (strain ATCC BAA-679 / EGD-e)). Put plainly: Inhibition of PrfA in Listeria monocytogenes EGD-e assessed as downregulation of ActA expression at 1 uM by Western blot method.
Data set [3] shares this target. Put plainly: Inhibition of PrfA in Listeria monocytogenes EGD-e assessed as downregulation of LLO expression at 1 uM by Western blot method. In general terms: In western blotting, separated proteins are transferred to a membrane and probed.
Data set [4] addresses T2, Listeriolysin regulatory protein (Listeria monocytogenes serovar 1/2a (strain ATCC BAA-679 / EGD-e), UniProt P22262).
T2 sequence (P22262 whole entry): T1 sequence (whole entry)
Briefly: Binding affinity to Listeria monocytogenes 6-His-tagged PrfA expressed in Escherichia coli BL21 (DE3) pLysS assessed as inhibition of protein binding with biotinylated hpt-DNA by SPR method. On the technique in general: SPR reads the build-up and loss of mass on a sensor chip optically.

Data set [5] addresses T1, Listeriolysin regulatory protein (Listeria monocytogenes serovar 1/2a (strain ATCC BAA-679 / EGD-e)). Put plainly: Inhibition of PrfA in Listeria monocytogenes EGD-e assessed as downregulation of LLO expression at 10 uM by Western blot method.
Data set [6] shares this target. Briefly: Binding affinity to GFP expressing Listeria monocytogenes EGD-e PrfA expressed in Escherichia coli assessed as inhibition of bacterial uptake in human Caco2 cells at 20 uM incubated for 4 hrs by flow cytometric method relative to (R)-8-cyclopropyl-7-(naphthalen-1-ylmethyl)-5-oxo-3,5-dihydro-2H-thiazolo[3,2-a]pyridine-3-carboxylic acid. (A flow cytometer gives signals particle by particle.)

Data set [7] shares this target. Briefly: Binding affinity to Listeria monocytogenes 6-His-tagged PrfA expressed in Escherichia coli BL21 (DE3) pLysS by ITC method.
In data set [8] the test system is Listeria monocytogenes. Briefly: Effect on growth of Listeria monocytogenes EGD-e at 100 uM after 7 hrs. The note with it: in vivo. In kind it is organism-based.
Data set [9] deals with Listeria monocytogenes. Put plainly: Antivirulence activity against Listeria monocytogenes EGD-e infected in chicken embryo assessed as increase in embryo life span at 5 uM measured over 72 hrs. In kind it is functional.
Another data set is filed under the species Gallus gallus. Briefly: Toxicity in chicken embryo at 4 to 8 uM measured over 72 hrs. In kind it is organism-based. The note with it: in vivo.
Data set [10] deals with Listeria monocytogenes. Briefly: Effect on PrfA expression in Listeria monocytogenes EGD-e at 1 uM by Western blot method. In kind it is functional.
Data set [11] deals with T1, Listeriolysin regulatory protein (Listeria monocytogenes serovar 1/2a (strain ATCC BAA-679 / EGD-e)). Briefly: Binding affinity to GFP expressing Listeria monocytogenes EGD-e PrfA expressed in Escherichia coli assessed as inhibition of bacterial uptake in human Caco2 cells at 1 uM incubated for 4 hrs by flow cytometric method relative to control.

Activity calls are given as the source filed them. The rule behind the calls is not given here.

`O=C(O)[C@@H]1CSc2c(C3CC3)c(Cc3cccc4ccccc34)cc(=O)n21`: the inhibition entry in [1], in [2], in data set [3] and in data set [5] was “Active” throughout. In addition, in [4], the IC50 – broadly, the point on the concentration scale where inhibition reaches its midpoint – is 4.5 µM.

As for `Cc1ccc(Cc2cc(=O)n3c(c2C2CC2)SC[C@H]3C(=O)O)c2ccccc12`, the fold change (FC) in data set [6] is 0.5.

As to `O=C(O)[C@@H]1CSc2c(C3CC3)c(Cc3cnc4ccccc4c3)cc(=O)n21`, in data set [6], the fold change (FC) was 13.

Regarding `CN(C)c1c(Cc2cccc3ccccc23)cc(=O)n2c1SCC2C(=O)O.Cl` (racemic), the inhibition result in data set [1], in [2], in [3] and in [5] was “Active” each time. Besides, the outcome in [7] was Active. Also, the Activity entry with Listeria monocytogenes [8] is on record as “Non-Toxic”. For the same molecule, in data set [6], the fold change (FC) was determined as 0.7. In data set [4], the IC50 amounted to 1.8 µM.

`COc1c(Cc2cccc3ccccc23)cc(=O)n2c1SCC2C(=O)O` (racemic): the inhibition result in data set [1], in [2], in data set [3] and in data set [5] was “inactive” each time. For the same molecule, the outcome in [7] was Active. Also, the fold change (FC) in [6] stood at 7. Moreover, the IC50 in data set [4] worked out at 65.6 µM.

Take `Cc1cccc(Cc2cc(=O)n3c(c2N(C)C)SCC3C(=O)O)c1C` (racemic): the inhibition entry in data set [1], in data set [2], in data set [3] and in data set [5] was “Active” throughout. Besides, the outcome in [7] was Active. Besides, the Activity result with Listeria monocytogenes [8] was “Non-Toxic”. In addition, in data set [6], the fold change (FC) was 0.6. The IC50 in data set [4] is 3 µM.

Regarding `C=CCOc1c(Cc2cccc3ccccc23)cc(=O)n2c1SCC2C(=O)O` (racemic), the fold change (FC) in [6] stood at 4.

Regarding `CC(=O)Nc1c(Cc2cccc3ccccc23)cc(=O)n2c1SCC2C(=O)O` (racemic), the fold change (FC) in data set [6] worked out at 5.

Take `CC(C)COc1c(Cc2cccc3ccccc23)cc(=O)n2c1SCC2C(=O)O` (racemic): the fold change (FC) in data set [6] is 4.

Turning to `CC(C)Nc1c(Cc2cccc3ccccc23)cc(=O)n2c1SCC2C(=O)O` (racemic), in data set [6], the fold change (FC) stood at 3.

`CCOc1c(Cc2cccc3ccccc23)cc(=O)n2c1SCC2C(=O)O` (racemic): the fold change (FC) in data set [6] stood at 5.

Consider `CCc1cc(=O)n2c(c1N(C)C)SCC2C(=O)O` (racemic), for which, in data set [6], the fold change (FC) was 10.

On to `COC(=O)Nc1c(Cc2cccc3ccccc23)cc(=O)n2c1SCC2C(=O)O` (racemic), for which, in [6], the fold change (FC) was 6.

For the molecule `CS(=O)(=O)Nc1c(Cc2cccc3ccccc23)cc(=O)n2c1SCC2C(=O)O` (racemic), the fold change (FC) in data set [6] was found to be 5.

As for `CS(=O)(=O)c1c(Cc2cccc3ccccc23)cc(=O)n2c1SCC2C(=O)O` (racemic), the fold change (FC) in data set [6] amounted to 7.

In the case of `Nc1c(Cc2cccc3ccccc23)cc(=O)n2c1SCC2C(=O)O` (racemic), the fold change (FC) in data set [6] was 3.

Regarding `O=C(O)C1CSc2c(O)c(Cc3cccc4ccccc34)cc(=O)n21` (racemic), the fold change (FC) in data set [6] was 5.

For `Cc1ccc(Cc2cc(=O)n3c(c2N(C)C)SCC3C(=O)O)c2ccccc12` (racemic; form 1) [listing 1 of 2 here], the ILS with Listeria monocytogenes [9] came to 6 h. The Activity result in the data set filed under Gallus gallus and in the data set on Listeria monocytogenes [8] was “Non-Toxic” each time. Moreover, in data set [4], the IC50 turned out to be 1.5 µM.

With `Cc1ccc(Cc2cc(=O)n3c(c2N(C)C)SCC3C(=O)O)c2ccccc12` (racemic; form 1) [listing 2 of 2 here], the result in data set [7] was Active. Moreover, the result in the data set with Listeria monocytogenes [10] was inactive. Further, the inhibition result in data set [2] and in data set [3] was “Active” each time. In [6], the fold change (FC) was 0.7. Also, the inhibition (in general, the share of the control response that was lost under treatment) in data set [11] was 90%.

As for `Cc1ccc(Cc2cc(=O)n3c(c2N(C)C)SCC3C(=O)O)c2ccccc12.c1c[nH]cn1` (racemic; form 2), the ILS in the data set with Listeria monocytogenes [9] came out at 9 h.
